Reference: patent US20180021417A1, “ADJUVANT COMPOSITIONS COMPRISING A NON-IONIC ISOTONICITY AGENT” (GLAXOSMITHKLINE BIOLOGICALS, SA, priority 2009, published 2018)

Test system: chicken Red Blood cells (RBC)
Experiment: QS21 lytic activity, haemolysis assay (limit test)
Format: cell-based
Settings: example QS21 curve, 150 mM sodium chloride buffer; OD 0.12
Experimental: QS21 is known to lyse red blood cells (RBC).
QS21 lytic activity was measured by a haemolysis assay using chicken Red Blood cells (RBC). RBC were centrifuged at 550 g at 4° C. Supernatant was discarded. The pellet was carefully resuspended in PBS buffer to reach the initial volume and the same operation was repeated until supernatant was no longer red (generally 3 times). The pellet was stored at 4° C. for 3 to 4 days maximum if not used directly (and washed again the day it is used) or was diluted around 10 times in buffer if used the same day.
A QS21 dose range curve was prepared in ASA buffer (in salt or in sorbitol buffer following the ASA sample tested) extemporaneously and the adjuvant samples (containing a 50 μg or 90 μg equivalent of QS21 meaning the equivalent of 500 μl or 900 μl ASA) were prepared. Final volume was adjusted to 900 μl in standards and samples with adequate buffer (containing or not sorbitol as a function of the buffer of the sample tested). Due to its opalescence, ASA interferes in optical density (OD). […] Optical density at 540 nm was measured after centrifugation. […]
1. Limit of detection (LOD) was defined as the lowest concentration of QS21 leading to an OD: • Higher than the base level (OD>0.1) • Around three times higher than OD's buffer (the “o μg” QS21) • In the ascendant part of the curve • Determined for each test. […]

Substance: QS21
- Limit of Detection (lowest QS21 amount giving lytic OD): 0.9 µg
